Publication PMC5638581 (Molecular Biology of the Cell, 2017)

Columns and labels:
[1] = biological target: TorsinA (TorA) with LULL1 luminal domain (LULL1^LD) (Homo sapiens, UniProt O14656); details: 3 μM TorA, 3 μM LULL1 LD, 2 mM ATP, 37 °C, 1 h
[2] = biological target: TorsinA (TorA) with LAP1 luminal domain (LAP1^LD) (Homo sapiens, UniProt O14656); details: 3 μM TorA, 3 μM LAP1 LD, 2 mM ATP, 37 °C, 1 h
[3] = biological target: the molecule itself; assay: SEC + other: negative stain electron microscopy

Chain of TorsinA (TorA) with LULL1 luminal domain (LULL1^LD) (Q8NFQ8 236-470 partner, one chain of several): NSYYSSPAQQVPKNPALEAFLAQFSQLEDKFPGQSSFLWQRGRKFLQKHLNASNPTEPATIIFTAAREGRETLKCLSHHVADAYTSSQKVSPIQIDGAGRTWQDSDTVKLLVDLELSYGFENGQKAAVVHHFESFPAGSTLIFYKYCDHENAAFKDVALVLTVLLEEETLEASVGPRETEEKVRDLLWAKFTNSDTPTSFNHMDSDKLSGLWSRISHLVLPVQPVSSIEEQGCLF
Chain of TorsinA (TorA) with LAP1 luminal domain (LAP1^LD) (Q5JTV8 356-583 partner, one chain of several): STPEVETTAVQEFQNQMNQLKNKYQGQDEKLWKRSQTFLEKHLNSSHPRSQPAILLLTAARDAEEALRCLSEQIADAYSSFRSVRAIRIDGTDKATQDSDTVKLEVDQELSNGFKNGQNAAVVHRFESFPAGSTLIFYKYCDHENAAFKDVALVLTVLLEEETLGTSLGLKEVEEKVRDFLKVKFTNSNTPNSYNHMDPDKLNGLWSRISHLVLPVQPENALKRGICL

## Nc1ncnc2c1ncn2[C@@H]1O[C@H](COP(=O)(O)OP(=O)(O)OP(=O)(O)O)[C@@H](O)[C@H]1O [ATP]
[1]
  malachite green phosphate release (ATPase): ATPase activity was measured in the absence and presence of LAP1^LD and LULL1^LD
[2]
  malachite green phosphate release (ATPase): ATPase activity was measured in the absence and presence of LAP1^LD and LULL1^LD

B1: TorsinA wild type, C-terminally FLAG-tagged, full length (enzyme, human, UniProt O14656 21-332, looked up)
chain: VEPISLGLALAGVLTGYIYPRLYCLFAECCGQKRSLSREALQKDLDDNLFGQHLAKKIILNAVFGFINNPKPKKPLTLSLHGWTGTGKNFVSKIIAENIYEGGLNSDYVHLFVATLHFPHASNITLYKDQLQLWIRGNVSACARSIFIFDEMDKMHAGLIDAIKPFLDYYDLVDGVSYQKAMFIFLSNAGAERITDVALDFWRSGKQREDIKLKDIEHALSVSVFNNKNSGFWHSSLIDRNLIDYFVPFLPLEYKHLKMCIRVEMQSRGYEIDEDIVSRVAEEMTFFPKEERVFSDKGCKTVFTKLDYYYDD
[3]
  stoichiometry N: ~6
